Patent US8093060B2, “Multisite phosphorylated peptide (protein) recognizing compound and detection method, imaging method, alzheimer's disease diagnosing method and reagent kit using the same” (Canon Kabushiki Kaisha, priority 2008, dated 2012)

Tests used:
GSK-3β = assay: Kinase assay using BODIPY-Zn(Dpa), Tau1P and GSK-3β; type: biochemical
Procedure: A kinase assay was performed using Tau1P, a phosphorylated partial sequence peptide of a tau protein, BODIPY-Zn(Dpa) and GSK-3β, which phosphorylates the 231st threonine. The experiment conditions were as follows: 20 μM Tau1P, 20 μM BODIPY-Zn(Dpa), 100 μM ATP, 2 μg of BSA, 50 mM HEPES, 10 mM MgCl2, 10 mM DTT, 2 μM EDTA; pH 7.2; 30° C.; and an excitation wavelength of 540 nm. […] This is a result of phosphorylation of the 231st threonine in Tau1P by GSK-3β, recognition of the phosphorylation by BODIPY-Zn(Dpa) and the resulting interaction.

[1] = system: phosphorylated tau protein; assay: Fluorescence staining of AD-affected human brain hippocampal tissue sections, costaining with tau antibodies; settings: 10 μM probe
Procedure: (§1) To investigate whether an excessively phosphorylated tau protein in brain tissues can be detected, a fluorescence staining experiment of hippocampal tissue sections from a human brain affected by Alzheimer (AD) and a normal brain was performed using BODIPY-Zn(Dpa). Specifically, hippocampal tissue sections from the AD-affected human brain or the normal brain were deparaffinized (xylene immersion for 5 min was repeated three times, then each section was immersed in 100%, 90%, 80% and 70% aqueous ethanol solution in stages [for 2 min each], and finally washed twice with water for 5 min), lipofuscin was removed (washed twice with PBS for 2 min, immersed in 0.25% by weight permanganate potassium/PBS for 30 min, washed twice with PBS for 2 min, immersed in 1% by weight oxalic acid and 1% by weight potassium pyrosulfate/PBS for 6 min and finally washed twice with PBS for 2 min), trypsin treatment was performed (washed twice with PBS-Tween at room temperature for 2 min and 0.05% Trypsin/PBS at 37° C. for 15 min), and finally washed twice with PBS-Tween at room temperature for 5 min, and costaining was performed using an antibody and BODIPY-Zn(Dpa). First, blocking was performed with 10% goat serum (37° C., 30 min) to remove 10% goat serum, then a primary antibody was added, and a reaction was performed at 4° C. for 17 to 19 h. […]

amyloid beta protein = assay: Fluorescence staining of AD-affected human brain hippocampal tissue sections, costaining with anti-Aβ antibody; settings: 10 μM probe
Procedure: as §1

[2] = system: hippocampal tissues from the normal human brain; assay: Fluorescence staining of normal human brain hippocampal tissue sections
Procedure: as §1

[3] = Delivery of BODIPY-Zn(Dpa) into brain after intravenous administration; type: in vivo, ICR mouse; settings: i.v. 1 mg/kg; for percent of the dose per gram of the mouse brain: rounded; for content in the brain / content in the brain based on the dose: mouse
Procedure: BODIPY-Zn(Dpa) was intravenously administered to an ICR mouse (male, 7 weeks old) to measure the delivery thereof into the brain in vivo. Specifically, BODIPY-Zn(Dpa) (400 μL of 50 μM HBS solution) was injected from the caudal vein at a dose of 1 mg/kg, and the brain was collected at 2 or 30 min after administration. The collected brain (424 to 488 mg) was homogenized in 3 mL of an HBS solution using a spatula and homogenized by ultrasonic irradiation. BODIPY-Zn(Dpa) contained in the brain was quantified by reverse-phase HPLC to obtain the content of BODIPY-Zn(Dpa) in the brain based on the dose (% ID/g: % injected dose per gram of the brain). Fluorescence from the compound (excitation, 520 nm; fluorescence, 545 nm) was utilized for detection by HPLC.

tau aggregate = molecular target: T1, tau aggregate (Homo sapiens, UniProt P10636); assay: Fluorescence titration of tau aggregate against 100 nM BODIPY-Zn(Dpa); type: binding; settings: tau 0 to 320 nM against 100 nM BODIPY-Zn(Dpa), 37° C., 60 min
T1 construct: made in house; host or cells: Escherichia coli
Procedure: (§2) The ranges of concentrations at which a phosphorylated tau aggregate, a tau aggregate, and an amyloid β aggregate interact with BODIPY-Zn(Dpa) were examined by titration. Titration was performed in the range of tau concentrations of 0 to 320 nM (0 to 14 μg/mL) against 100 nM of BODIPY-Zn(Dpa). Using a solvent obtained by adding 10% DMSO and 10 μM Zn(NO3)2 to HBS (10 mM HEPES (pH 7.4), 150 mM NaCl), the solution was incubated at 37° C. for 60 min, and fluorescence was measured (excitation wavelength, 490 nm; fluorescence wavelength, 545 nm).

[4] = molecular target: T2, phosphorylated tau aggregate (Homo sapiens, UniProt P10636); assay: Fluorescence titration of phosphorylated tau aggregate against 100 nM BODIPY-Zn(Dpa); type: binding; settings: compared with tau aggregate and amyloid β aggregate
T2 construct: made in house; host or cells: Escherichia coli
Procedure: as §2

[5] = molecular target: T2, phosphorylated tau aggregate; assay: Fluorescence titration of BODIPY-Zn(Dpa) against phosphorylated tau aggregate (EC50); type: binding
Procedure: BODIPY-Zn(Dpa) was titrated against a phosphorylated tau aggregate, a tau aggregate, and an amyloid β aggregate to obtain EC50 (a probe concentration at which a half value of the maximum change (ΔFmax) in fluorescence intensity is observed). BODIPY-Zn(Dpa) was titrated against an aggregate at a predetermined concentration (1 μg/mL), and changes in fluorescence intensity at each concentration (ΔF) were plotted. Using a solvent obtained by adding 10% DMSO and 100 μM Zn(NO3)2 to HBS (10 mM HEPES (pH 7.4), 150 mM NaCl), the solution was incubated at 37° C. for 30 min, and fluorescence was measured (excitation wavelength, 490 nm; fluorescence wavelength, 545 nm).

T2 sequence (P10636 1-441 isoform P10636-8): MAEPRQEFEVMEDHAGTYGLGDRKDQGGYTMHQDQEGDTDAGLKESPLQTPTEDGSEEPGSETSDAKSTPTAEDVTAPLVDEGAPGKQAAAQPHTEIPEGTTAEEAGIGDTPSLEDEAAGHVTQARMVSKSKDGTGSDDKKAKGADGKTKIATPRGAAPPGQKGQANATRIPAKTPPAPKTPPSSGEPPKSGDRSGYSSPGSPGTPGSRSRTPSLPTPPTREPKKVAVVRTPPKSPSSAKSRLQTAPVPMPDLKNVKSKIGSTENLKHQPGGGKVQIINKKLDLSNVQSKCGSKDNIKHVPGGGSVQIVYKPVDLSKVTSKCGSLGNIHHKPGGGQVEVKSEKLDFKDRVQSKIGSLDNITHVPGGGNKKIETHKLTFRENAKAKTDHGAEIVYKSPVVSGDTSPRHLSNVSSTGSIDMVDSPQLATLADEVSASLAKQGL
T1 sequence (P10636 1-441 isoform P10636-8): as above

Question: Which “fluorescence intensity change with time” value (GSK-3β; 20 μM Tau1P, 20 μM BODIPY-Zn(Dpa), 100 μM ATP, 30° C.) does the source give for CC1=C(c2ccc(CN(C)Cc3ccccn3)nc2)C(C)=[N+]2C1=C(c1cc(OCCOCCOCCO)cc(OCCOCCOCCO)c1)c1c(C)c(-c3ccc(CN(C)Cc4ccccn4)nc3)c(C)n1[B-]2(F)F.O=[N+]([O-])[O-].O=[N+]([O-])[O-].O=[N+]([O-])[O-].O=[N+]([O-])[O-].[Zn+2].[Zn+2] [BODIPY-Zn(Dpa)] here?
Answer: Its value is “increase in fluorescence intensity with time was confirmed”.

Question: And the “kinase concentration dependence of fluorescence intensity” value (GSK-3β; GSK-3β concentration varied)?
Answer: Its value is “concentration-dependence of GSK-3β was observed”.

Question: And the “coexistence of fluorescence with Tau-2 and AT8 antibody staining” value [1]?
Answer: Its value is “coexisted”.

Question: What about the “coexistence of fluorescence with Aβ42 (anti-Aβ antibody) staining” value (amyloid beta protein) of the same molecule?
Answer: Its value is “did not coexist”.

Question: And the fluorescence in tissue [2]?
Answer: Its fluorescence in tissue is “is not observed”.

Question: And the “percent of the dose per gram of the mouse brain” value ([3]; 2 min after administration)?
Answer: The value was 0.5%.

Question: And the “percent of the dose per gram of the mouse brain” value ([3]; 30 min after administration)?
Answer: The value was 0.02%.

Question: What about the “content in the brain” value ([3]; 2 min after administration) of the same molecule?
Answer: The value was 99.3 pmol/g brain.

Question: And the “content in the brain based on the dose” value ([3]; 2 min after administration)?
Answer: Its value is 0.496 % ID/g.

Question: What about the “content in the brain” value ([3]; 30 min after administration) of the same molecule?
Answer: Its value is 3.96 pmol/g brain.

Question: And the “content in the brain based on the dose” value ([3]; 30 min after administration)?
Answer: The value was 0.020 % ID/g.

Question: What about the “concentration range of interaction” value (tau aggregate) of the same molecule?
Answer: Its value is “in the range of nM”.

Question: And the “concentration at which fluorescence change occurred” value [4]?
Answer: Its value is “at the lowest concentration”.

Question: What about the EC50 ([5]; aggregate 1 μg/mL, 37° C., 30 min) of the same molecule?
Answer: The EC50 was 9.1 nM.

Question: What about the “affinity (EC50) for phosphorylated tau aggregate relative to amyloid β aggregate” value ([5]; higher than for the amyloid β aggregate) of the same molecule?
Answer: The value was 70 times.

Question: What about the “affinity (EC50) for phosphorylated tau aggregate relative to tau aggregate” value ([5]; higher than for the tau aggregate) of the same molecule?
Answer: Its value is 9 times.
